The subject of experiment [1] is HiBit-tagged Target C in K562 cells. As to the kind of experiment: HiBiT protein abundance assay, Target C. As to conditions: HiBiT-modified K562 cells, 24 hours, luminescence. It counts as cell-based, human. As for the experimental part:
(§1) Compounds described herein were used to screen for effects on quantitative protein abundance using a HiBit assay system (Promega). Quantitative protein abundance was determined by measuring the protein levels of HiBit-tagged protein targets expressed in cell culture via luminescence using the Nano-Glo HiBiT Lytic Detection System, which uses a split complementation assay format to reconstitute NanoBiT enzyme to generate a luminescent signal. A protein abundance assay was developed such that endogenous protein targets could be modified with the HiBiT peptide tag and their abundance could be assessed after compound treatment. Briefly, K562 cell lines containing a HiBiT-modification were treated with various compounds described herein (e.g., compounds of Formulas (I)). After treatment for 24 hours, the protein abundance of a specific target was determined by measuring luminescence.
(§2) Cells were maintained in IMDM with 10% FBS. Before the assay, cells were diluted with […] growth media (IMDM+[…] media) and were seeded in a 384-well plate at a density of 10000 cells/well (for each cell line listed in Table 8). Each compound was prepared as a 10-point 3-fold serial dilution in DMSO with the top dose at a final concentration of 10 μM in the well. Unmodified K562 cells were added at the previously specified density with DMSO to serve as an assay baseline and positive control (PC) and DMSO only with the respective modified cell lines was added to the negative control (NC) columns. Final DMSO concentration was kept at or below 0.25% o. Treated cell plates were placed in an incubator at 37° C. with […] for 24 hours. After 24 hours, 25 μL of Complete HiBit Lytic reagent was added to each well at room temperature (e.g. one plate requiring 10 mL Lytic Buffer, 100 μL LgBiT Protein, 200 μL Lytic Substrate), shaken for 5 minutes at 600 RPM, then left to sit for 10 minutes for signal to stabilize before reading on a Spark Cyto plate reader (Tecan) with a 500 ms measurement time.
(§3) To determine compound effects on protein abundance of each target in Table 9, the percent response for each respective cell line was calculated at each compound concentration as follows:
(§4) For the normalized response at each concentration, a four-parameter logistical regression was fit to the data and the response was interpolated at the […] to determine a concentration for protein abundance at 50% o (IC50) the untreated control.

A further experiment has as its system Target C. The experiment in a line: Gene panel canonical junction qPCR assay, Target C CJ mRNA (Table 7). The settings on record: Homo sapiens, read-out: Target C CJ mRNA decrease IC50. Type of experiment: cell-based, human. In short, it runs like this:
(§5)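 A673 or K562 cells treated with compound; canonical exon-junction mRNA measured by RT-qPCR with junction-spanning primers/probe, normalised to GAPDH, GUSB or PPIA and DMSO (ΔΔCt, RQ). Percentage response set from fixed ΔCt assay windows, fitted to a 4-parameter logistic; IC50 is concentration giving 50% CJ decrease.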

Experiment [2] concerns HiBit-tagged HTT in K562 cells. As to the kind of experiment: HiBiT protein abundance assay, HTT. It counts as cell-based, human. The settings on record: HiBiT-modified K562 cells, 24 hours, luminescence. On the procedure:
as §1, §2, §3, §4

For experiment [3], the system named is HiBit-tagged MYB in K562 cells. The experiment in a line: HiBiT protein abundance assay, MYB. It counts as cell-based, human. The settings on record: HiBiT-modified K562 cells, 24 hours, luminescence. As for the experimental part: as §1, §2, §3, §4
For experiment [4], the system named is HTT. As to the kind of experiment: RT-qPCR splicing assay, HTT AJ/CJ mRNA. Type of experiment: cell-based, human. The settings on record: A673 or K562 cells; for IC50: decrease in canonical junction mRNA; for AC50: increase in alternative junction mRNA. In short, it runs like this:
(§6)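 Following 24 h compound exposure at 37 °C (11 points, 3-fold, highest 10 uM; DMSO ≤0.25%), A673 or K562 lysates underwent RT-qPCR for exon-inclusion (AJ) and canonical (CJ) junctions of HTT and MYB. Relative quantification used housekeeping-gene ΔCt and DMSO-normalized ΔΔCt, converted to percentage response.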

Experiment [5] concerns HTT. The experiment in a line: Gene panel canonical junction qPCR assay, HTT CJ mRNA (Table 7). It counts as cell-based, human. As to conditions: read-out: HTT CJ mRNA decrease IC50. In short, it runs like this: as §5
The test system of a further experiment is SMN2. The experiment in a line: Gene panel canonical junction qPCR assay, SMN2 CJ mRNA (Table 7). It counts as cell-based. The settings on record: Homo sapiens, read-out: SMN2 CJ mRNA decrease IC50. The essentials:
as §5

Experiment [6] relates to MYB. The experiment in a line: Gene panel canonical junction qPCR assay, MYB CJ mRNA (Table 7). Type of experiment: cell-based. The settings on record: Homo sapiens, read-out: MYB CJ mRNA decrease IC50. The essentials: as §5
Experiment [7] relates to MYB. The experiment in a line: RT-qPCR splicing assay, MYB AJ/CJ mRNA. It counts as cell-based. The settings on record: Homo sapiens, A673 or K562 cells, 24 hours; for IC50: decrease in canonical junction mRNA; for AC50: increase in alternative junction mRNA. In short, it runs like this:
as §6

Bounds are passed on as bounds.

For `c1cnn(-c2ccc3c(c2)OCc2nc(N[C@@H]4C[C@H]5CC[C@@H](C4)N5)ccc2-3)c1` [Compound 119], the IC50 in experiment [1] is 1000 to 10000 nM; in the experiment on Target C it was 1000 to 10000 nM; in experiment [2], 100 to 1000 nM; in [3] it was 1000 to 10000 nM; in the experiment with HTT [4] (24 hours), over 10000 nM; in the experiment on HTT [5], over 10000 nM. The compound also displayed an AC50 with HTT [4] (24 hours) of over 10000 nM.

Take `CC1(C)CC(Nc2ccc3c(n2)CCOc2cc(-c4cn[nH]c4)ccc2-3)CC(C)(C)N1` [Compound 141]: the IC50 in experiment [1] was 1000 to 10000 nM; in the experiment with Target C it was 1000 to 10000 nM; in experiment [2] it was 1000 to 10000 nM; in experiment [3], under 100 nM; in the experiment with HTT [4] (Homo sapiens, 24 h), over 10000 nM; in the experiment with HTT [5] (Homo sapiens), over 10000 nM. This compound also had a concentration at half-maximal activity (AC50) in the experiment with HTT [4] (Homo sapiens, 24 h) of over 10000 nM.

Consider `COc1cc(-c2ccc3c(c2)COc2nc(N4CCC(C)(NC(C)C)C4)ccc2-3)cnn1` (stereo not shown) [Compound 309], for which the half-inhibitory concentration (IC50) in the experiment with SMN2 was under 100 nM; in the experiment with MYB [6] it was 100 to 1000 nM; in the experiment with Target C, 100 to 1000 nM; in the experiment with MYB [7], 100 to 1000 nM; in the experiment on HTT [4] (Homo sapiens, 24 h), under 100 nM; in the experiment on HTT [5] (Homo sapiens), under 100 nM. In addition, the AC50 with MYB [7] is 100 to 1000 nM; with HTT [4] (Homo sapiens, 24 h), under 100 nM.

`CCN(C)C1CCN(c2ccc3c(n2)OCc2cc(-c4cnnc(OC)c4)ccc2-3)C1` (stereo not shown) [Compound 310]: the 50% inhibitory concentration (IC50) with SMN2 lay in the range of 100 to 1000 nM; with MYB [6], 100 to 1000 nM; with Target C, 1000 to 10000 nM; in the experiment with MYB [7], 100 to 1000 nM; in the experiment on HTT [4] (Homo sapiens, 24 h), 100 to 1000 nM; with HTT [5] (Homo sapiens), 100 to 1000 nM. Besides, the AC50 lay within 1000 to 10000 nM in the experiment with MYB [7] and 100 to 1000 nM in the experiment with HTT [4] (Homo sapiens, 24 h).

For `COc1cc(-c2ccc3c(c2)COc2nc(N4CCC(N(C)C(C)C)C4)ccc2-3)cnn1` (stereo not shown) [Compound 311], the IC50 with SMN2 was in the range of 100 to 1000 nM; with MYB [6], 1000 to 10000 nM; in the experiment with Target C, 1000 to 10000 nM; in the experiment with MYB [7], 1000 to 10000 nM; in the experiment on HTT [4] (Homo sapiens, 24 h) it was 100 to 1000 nM; in the experiment on HTT [5] (Homo sapiens) it was 100 to 1000 nM. In addition, the concentration at half-maximal activity (AC50) lay within 100 to 1000 nM with MYB [7] and 100 to 1000 nM with HTT [4] (Homo sapiens, 24 h).

With `COc1cc(-c2ccc3c(c2)COc2nc(N4CCC(N5CCC5)C4)ccc2-3)cnn1` (stereo not shown) [Compound 312], the 50% inhibitory concentration (IC50) with SMN2 is 100 to 1000 nM; in the experiment on MYB [6] it was 1000 to 10000 nM; with Target C, over 10000 nM; in the experiment with MYB [7], 1000 to 10000 nM; with HTT [4] (Homo sapiens, 24 h), 100 to 1000 nM; in the experiment with HTT [5] (Homo sapiens), 100 to 1000 nM. The concentration at half-maximal activity (AC50) in the experiment with MYB [7] lay in the range of 1000 to 10000 nM; in the experiment on HTT [4] (Homo sapiens, 24 h), 1000 to 10000 nM.

Take `CC(C)(C)NC1CCN(c2ccc3c(n2)OCc2cc(-c4c(F)cn[nH]c4=O)ccc2-3)C1` (stereo not shown) [Compound 315, 4-{3-[3-(tert-butylamino)pyrrolidin-1-yl]-6H-isochromeno[3,4-b]pyridin-8-yl}-5-fluoro-2H-pyridazin-3-one]: the IC50 with SMN2 was over 10000 nM; in the experiment with MYB [6] it was over 10000 nM; in the experiment on Target C, over 10000 nM; with MYB [7], over 10000 nM; in the experiment with HTT [4] (Homo sapiens, 24 h), over 10000 nM; in the experiment on HTT [5] (Homo sapiens), over 10000 nM. The AC50 in the experiment with MYB [7] is over 10000 nM; with HTT [4] (Homo sapiens, 24 h) it was over 10000 nM.

On to `COc1cc(-c2ccc3c(c2)COc2nc(N4CCC(NC(C)(C)C(C)C)C4)ccc2-3)cnn1` (stereo not shown) [Compound 316, N-(2,3-dimethylbutan-2-yl)-1-[8-(6-methoxypyridazin-4-yl)-6H-isochromeno[3,4-b]pyridin-3-yl]pyrrolidin-3-amine], for which the 50% inhibitory concentration (IC50) in the experiment on SMN2 was under 100 nM; with MYB [6], 100 to 1000 nM; in the experiment with Target C it was 100 to 1000 nM; in the experiment on MYB [7], 100 to 1000 nM; in the experiment with HTT [4] (Homo sapiens, 24 h), under 100 nM; in the experiment on HTT [5] (Homo sapiens), under 100 nM. Besides, the concentration at half-maximal activity (AC50) is 100 to 1000 nM in the experiment on MYB [7] and 100 to 1000 nM in the experiment with HTT [4] (Homo sapiens, 24 h).

For `COc1cc(-c2ccc3c(c2)COc2nc(N4CCN[C@H](C(C)(C)C)C4)ccc2-3)cnn1` [Compound 317, 5-{3-[(3R)-3-tert-butylpiperazin-1-yl]-6H-isochromeno [3,4-b]pyridin-8-yl}-3-methoxypyridazine], the IC50 in the experiment on SMN2 was under 100 nM; in the experiment on MYB [6] it was 100 to 1000 nM; in the experiment on Target C, 100 to 1000 nM; with MYB [7], 100 to 1000 nM; with HTT [4] (Homo sapiens, 24 h), 100 to 1000 nM; in the experiment on HTT [5] (Homo sapiens) it was 100 to 1000 nM. Further, the AC50 in the experiment with MYB [7] lay within 100 to 1000 nM; with HTT [4] (Homo sapiens, 24 h), 100 to 1000 nM.

On to `COc1cc(-c2ccc3c(c2)COc2nc(N4CCN[C@@H](C(C)(C)C)C4)ccc2-3)cnn1` [Compound 318, 5-{3-[(3S)-3-tert-butylpiperazin-1-yl]-6H-isochromeno[3,4-b]pyridin-8-yl}-3-methoxypyridazine], for which the IC50 was under 100 nM with SMN2; 100 to 1000 nM in the experiment with MYB [6]; 100 to 1000 nM in the experiment on Target C; 100 to 1000 nM with MYB [7]; under 100 nM in the experiment on HTT [4] (Homo sapiens, 24 h); under 100 nM in the experiment with HTT [5] (Homo sapiens). The AC50 with MYB [7] lay in the range of 100 to 1000 nM; in the experiment on HTT [4] (Homo sapiens, 24 h), 100 to 1000 nM.

With `COc1cc(-c2ccc3c(c2)COc2nc(N4CCC(N(C)C5CC5)C4)ccc2-3)cnn1` (stereo not shown) [Compound 320], the 50% inhibitory concentration (IC50) was 100 to 1000 nM in the experiment with SMN2; over 10000 nM with MYB [6]; 1000 to 10000 nM in the experiment with Target C; over 10000 nM in the experiment with MYB [7]; 1000 to 10000 nM in the experiment on HTT [4] (Homo sapiens, 24 h); 1000 to 10000 nM with HTT [5] (Homo sapiens). The half-maximal activity concentration (AC50) fell in the range of 1000 to 10000 nM in the experiment with MYB [7] and 1000 to 10000 nM in the experiment on HTT [4] (Homo sapiens, 24 h).

`CCN(CC)C1CCN(c2ccc3c(n2)OCc2cc(-c4cnnc(OC)c4)ccc2-3)C1` (stereo not shown) [Compound 321]: the half-maximal inhibitory concentration (IC50) fell in the range of 100 to 1000 nM with SMN2; 1000 to 10000 nM with MYB [6]; 1000 to 10000 nM in the experiment on Target C; 1000 to 10000 nM with MYB [7]; 100 to 1000 nM with HTT [4] (Homo sapiens, 24 h); 100 to 1000 nM in the experiment with HTT [5] (Homo sapiens). The AC50 in the experiment on MYB [7] fell in the range of 1000 to 10000 nM; with HTT [4] (Homo sapiens, 24 h), 100 to 1000 nM.
